Measured values reported in patent US5744023A, “Method for separation and recovery of organogermanium compound” (Asai Germanium Research Institute Co., Ltd., priority 1994, dated 1998).

Tests used:
[1] = acute oral toxicity (LD50) in mice; conditions: mouse, in vivo, orally administered
Source text: (§1) Since these organogermanium compounds are an expensive and valuable resource, it is desirable that they can be separated and recovered from respective reaction mixtures for reutilization. However, both the saccharides and the organogermanium compounds are organic compounds of fairly high molecular weights and no method for effective separation of the two kinds of the compounds is known.

[2] = acute oral toxicity (LD50) in rats; conditions: rat, in vivo, orally administered
Source text: as §1

SMILES: O=C(O)C[CH2][Ge](=[O])[O][Ge](=[O])[CH2]CC(=O)O [Compound 1, 2-carboxyethylgermanium sesquioxide]
- LD50 [1]: ≥ 6000 mg/kg
- LD50 [2]: ≥ 10000 mg/kg
